Consider 3 compounds from patent US20150182431A1, “Compositions and Methods for Treatment of Hair with Reduced Hair Damage” (SYTHEON LTD, priority 2013, published 2015).

The conditions of this assay: for Fluorescence decay of fluorescein (FL), in words: 200 μM each, CuCl2 230 μM, CaCl2 2.3 mM. As to the method:
The study was conducted in accordance with the methodology disclosed in “Novel Fluorometric Assay for Hydroxyl Radical Prevention Capacity Using Fluorescein as the Probe”, B Ou, M Hampsch-Woodill, J Flanagan, EK Deemer, R Prior, D Huang, J. Agric, Food Chem: 50(10); 2772-2777, 2002.
The Fenton reaction was initiated with the mixture of Cu^2+, CaCl2 and hydrogen peroxide at alkaline condition. Hydroxyl radicals were generated by the Fenton reagent mixture, oxidative damage was monitored by fluorescein (FL), a fluorescence probe sensitive to hydroxyl radicals. The loss of fluorescence intensity was an index of oxidation. Thus, the slower the fluorescence decay, the stronger the chelation for Cu^2+.

For the compound `COc1cc(C=C(C(C)=O)C(C)=O)cc(OC)c1OC` [Compd. 1E, 3-(3,4,5-trimethoxybenzylidene) 2,4-pentanedione], the “Chelating ability for copper, in words” value is reported as “excellent chelating ability for copper” and the “Fluorescence decay of fluorescein (FL), in words” value (“Fluorescence decay of fluorescein” for short) is “barely noted”. Besides, where the note is “equimolar amounts (230 μM) of compound and Cu^2+”, the “Chelation of Cu^2+ preventing the Fenton reaction, in words” value is reported as “almost completely chelated”. Besides, the “Attraction for calcium, in words” value (excess Ca^2+) was “little attraction for calcium”.
As to `O=C(O)CC(NCCNC(CC(=O)O)C(=O)O)C(=O)O` (stereo not shown) [EDDS, Ethylenediamine-N,N′-disuccinic acid, reference compound], the “Chelating ability for copper, in words” value is given as “not an effective chelating agent for copper” and the “Fluorescence decay of fluorescein” value is on record as “barely noted”.
For `O=C(O)CN(CCN(CC(=O)O)CC(=O)O)CC(=O)O` [EDTA, Ethylenediamine tetraacetic acid, reference compound], the “Fluorescence decay of fluorescein” value is recorded as “barely noted”.
